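All cell lines were grown in 96-well plates and treated with compound for 48 hours. TGI is the concentration that stops growth completely.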
Legend:
Test in all cases: inhibition of tumour cell growth, NCI panel, 48 h
HOP-92 NSCLC = tested on: HOP-92 NSCLC
NCI-H460 lung = tested on: NCI-H460 lung
SW-620 colon = tested on: SW-620 colon
IGROV1 ovarian = tested on: IGROV1 ovarian
PC-3 prostate = tested on: PC-3 prostate
SK-OV-3 ovarian = tested on: SK-OV-3 ovarian
U251 CNS = tested on: U251 CNS
SF-268 CNS = tested on: SF-268 CNS
MDA-N = tested on: MDA-N
A549 NSCLC = tested on: A549 NSCLC
786-0 renal = tested on: 786-0 renal
MDA-MB-231 breast = tested on: MDA-MB-231 breast
SK-MEL-2 melanoma = tested on: SK-MEL-2 melanoma
KM12 colon = tested on: KM12 colon
SK-MEL-28 melanoma = tested on: SK-MEL-28 melanoma
A498 renal = tested on: A498 renal
CCRF-CEM leukemia = tested on: CCRF-CEM leukemia
SF-295 CNS = tested on: SF-295 CNS
OVCAR-4 ovarian = tested on: OVCAR-4 ovarian
HL-60(TB) leukemia = tested on: HL-60(TB) leukemia

With `CC(C)(CO)NC(=O)Nc1c(C(F)(F)F)cc(-c2ccccc2)[nH]c1=O` the TGI (HOP-92 NSCLC) was greater than 100 µM, the TGI (NCI-H460 lung) was greater than 100 µM and the TGI (SW-620 colon) was greater than 100 µM. It also gave a TGI (IGROV1 ovarian) greater than 100 µM, a TGI (PC-3 prostate) greater than 100 µM and a TGI (SK-OV-3 ovarian) greater than 100 µM. The TGI (U251 CNS) was greater than 100 µM, the TGI (SF-268 CNS) was greater than 100 µM and the TGI (MDA-N) was greater than 100 µM. For the same molecule, the TGI (A549 NSCLC) was greater than 100 µM, the TGI (786-0 renal) was greater than 100 µM and the TGI (MDA-MB-231 breast) was greater than 100 µM. It also gave a TGI (SK-MEL-2 melanoma) greater than 100 µM, a TGI (KM12 colon) greater than 100 µM and a TGI (SK-MEL-28 melanoma) greater than 100 µM. The TGI (A498 renal) was greater than 100 µM, the TGI (CCRF-CEM leukemia) was greater than 100 µM and the TGI (SF-295 CNS) was greater than 100 µM.

Molecule `O=C(Cc1ccccc1)NNc1nc(NNC(=O)c2ccncc2)nc(Nc2cccc(Cl)c2)n1` has a TGI (HOP-92 NSCLC) greater than 10 µM, a TGI (NCI-H460 lung) greater than 10 µM and a TGI (SW-620 colon) greater than 10 µM. For the same molecule, the TGI (IGROV1 ovarian) was greater than 10 µM, the TGI (SK-OV-3 ovarian) was greater than 10 µM and the TGI (U251 CNS) was greater than 10 µM. The TGI (SF-268 CNS) was greater than 10 µM, the TGI (OVCAR-4 ovarian) was greater than 10 µM and the TGI (MDA-N) was greater than 10 µM. The TGI (A549 NSCLC) was greater than 10 µM, the TGI (786-0 renal) was greater than 10 µM and the TGI (MDA-MB-231 breast) was greater than 10 µM. For the same molecule, the TGI (KM12 colon) was greater than 10 µM, the TGI (SK-MEL-28 melanoma) was greater than 10 µM and the TGI (CCRF-CEM leukemia) was greater than 10 µM. For the same molecule, the TGI (HL-60(TB) leukemia) was greater than 10 µM.

`CC(C)C/C=C/C1=NN(c2cccc(S(=O)(=O)O)c2)C2(C1)SCC(=O)N2c1nc2ccccc2s1` (configuration not stated) showed a TGI (HOP-92 NSCLC) greater than 100 µM, a TGI (NCI-H460 lung) greater than 100 µM and a TGI (SW-620 colon) greater than 100 µM. For the same molecule, the TGI (IGROV1 ovarian) was greater than 100 µM, the TGI (PC-3 prostate) was greater than 100 µM and the TGI (U251 CNS) was greater than 100 µM. The TGI (SF-268 CNS) was greater than 100 µM, the TGI (OVCAR-4 ovarian) was greater than 100 µM and the TGI (A549 NSCLC) was greater than 100 µM. The TGI (786-0 renal) was 46.3 µM, the TGI (MDA-MB-231 breast) was greater than 100 µM and the TGI (SK-MEL-2 melanoma) was greater than 100 µM. For the same molecule, the TGI (KM12 colon) was greater than 100 µM, the TGI (SK-MEL-28 melanoma) was greater than 100 µM and the TGI (A498 renal) was 88.2 µM. The TGI (CCRF-CEM leukemia) was 64.4 µM and the TGI (HL-60(TB) leukemia) was 82 µM.

For `O=C1CC(C(=O)N2CCCCC2)n2c(=O)n(-c3ccccc3)c(=O)n2C1` (configuration not stated), the TGI (NCI-H460 lung) was greater than 100 µM, the TGI (IGROV1 ovarian) was greater than 100 µM and the TGI (PC-3 prostate) was greater than 100 µM. The TGI (SK-OV-3 ovarian) was greater than 100 µM, the TGI (SF-268 CNS) was greater than 100 µM and the TGI (MDA-N) was greater than 100 µM. For the same molecule, the TGI (A549 NSCLC) was greater than 100 µM, the TGI (786-0 renal) was greater than 100 µM and the TGI (MDA-MB-231 breast) was greater than 100 µM. It also gave a TGI (KM12 colon) greater than 100 µM and a TGI (SF-295 CNS) greater than 100 µM.

In the case of `CC(=O)N1N(c2ccc([N+](=O)[O-])cc2)C(=O)C1(C)C`, the TGI (NCI-H460 lung) is reported as greater than 100 µM, the TGI (SW-620 colon) is reported as 29.2 µM and the TGI (IGROV1 ovarian) is reported as 44.8 µM. The TGI (PC-3 prostate) was 32 µM, the TGI (SK-OV-3 ovarian) was greater than 100 µM and the TGI (U251 CNS) was 52.8 µM. For the same molecule, the TGI (SF-268 CNS) was 87.1 µM, the TGI (OVCAR-4 ovarian) was 35 µM and the TGI (MDA-N) was greater than 100 µM. For the same molecule, the TGI (786-0 renal) was 36.6 µM, the TGI (MDA-MB-231 breast) was 45.7 µM and the TGI (SK-MEL-2 melanoma) was 37.4 µM. It also gave a TGI (KM12 colon) of 35.4 µM, a TGI (SK-MEL-28 melanoma) of 37.4 µM and a TGI (A498 renal) greater than 100 µM. It also gave a TGI (CCRF-CEM leukemia) of 33.3 µM and a TGI (SF-295 CNS) greater than 100 µM.

Work on `O=C1CCCCC/C1=C\c1ccc(Cl)cc1` yielded a TGI (HOP-92 NSCLC) of 98 µM, a TGI (NCI-H460 lung) greater than 100 µM and a TGI (SW-620 colon) of 61.2 µM. The TGI (IGROV1 ovarian) was greater than 100 µM, the TGI (PC-3 prostate) was 48.4 µM and the TGI (SK-OV-3 ovarian) was greater than 100 µM. The TGI (U251 CNS) was greater than 100 µM, the TGI (SF-268 CNS) was 55.5 µM and the TGI (OVCAR-4 ovarian) was 84.9 µM. For the same molecule, the TGI (MDA-N) was greater than 100 µM, the TGI (A549 NSCLC) was greater than 100 µM and the TGI (786-0 renal) was greater than 100 µM. For the same molecule, the TGI (MDA-MB-231 breast) was greater than 100 µM, the TGI (SK-MEL-2 melanoma) was greater than 100 µM and the TGI (KM12 colon) was 51.4 µM. For the same molecule, the TGI (SK-MEL-28 melanoma) was greater than 100 µM, the TGI (A498 renal) was greater than 100 µM and the TGI (CCRF-CEM leukemia) was 50.3 µM. For the same molecule, the TGI (SF-295 CNS) was 56.6 µM.

`O=c1oc2c(ccc3ccccc32)cc1C1=CSC2=NCCN12` showed a TGI (HOP-92 NSCLC) of 84.3 µM, a TGI (NCI-H460 lung) greater than 100 µM and a TGI (SW-620 colon) greater than 100 µM. The TGI (IGROV1 ovarian) was greater than 100 µM, the TGI (PC-3 prostate) was greater than 100 µM and the TGI (SK-OV-3 ovarian) was greater than 100 µM. It also gave a TGI (U251 CNS) greater than 100 µM, a TGI (SF-268 CNS) greater than 100 µM and a TGI (OVCAR-4 ovarian) greater than 100 µM. For the same molecule, the TGI (MDA-N) was greater than 100 µM, the TGI (A549 NSCLC) was greater than 100 µM and the TGI (786-0 renal) was greater than 100 µM. For the same molecule, the TGI (MDA-MB-231 breast) was greater than 100 µM, the TGI (SK-MEL-2 melanoma) was greater than 100 µM and the TGI (KM12 colon) was greater than 100 µM. For the same molecule, the TGI (SK-MEL-28 melanoma) was greater than 100 µM, the TGI (CCRF-CEM leukemia) was greater than 100 µM and the TGI (SF-295 CNS) was greater than 100 µM. It also gave a TGI (HL-60(TB) leukemia) greater than 100 µM.
